Like-named read-outs stand apart in the source and are kept apart here. No end group written: not given here.
Experiments:
[1] = test system: trypsin; type: in vitro ADME
Method: The effect of trypsin on C1 and CP was studied by incubating each peptide (1 μg/μl) in methanol and ammonium bicarbonate (0.1M) with 125 ng/μl of trypsin at pH 8 and 37° C. The effect of trypsin after incubation with CP and C1 was followed by mass spectrometry. […]

[2] = test system: E. coli; assay: Standard disk susceptibility testing (NCCLS), E. coli; type: cell-based
Method: (§1) The synthetic C1 peptide and its analogues were tested using Standard disk susceptibility testing by National Committee for […] Laboratory Standards (NCCLS) against, S. aureus, E. coli and S. pneumoniae. […]

[3] = test system: S. pneumoniae; assay: Standard disk susceptibility testing (NCCLS), S. pneumoniae; type: cell-based
Method: as §1

[4] = test system: S. aureus; type: cell-based
Method: as §1

[5] = test system: 2B4.11 hybridoma; assay: Antigen presentation assay (IL-2 produced in response to antigen); type: cell-based; conditions: for % Ave IL2 Production: average, Tables 1-3; for IL2 %: 50 μM, relative to DMSO control (100%); for IL-2 production, % of the solvent only control value: 0.5% DMSO, ±SD
[6] = test system: allergic mice (OVA/OVA); assay: Allergic airways disease (OVA) model: airways hyperreactivity to methacholine; type: in vivo; set-up: key to Airway Resistance / Airway Compliance: nc: no change; ↑: increase; ↓: decrease; conditions: for Airway Compliance / Airway Resistance: 200 μg/100 μl s.c. during OVA challenge, compared to OVA/OVA alone
[7] = Surface plasmon resonance binding to DMPC liposomes; conditions: SPR, L1 sensor chip, 50 μM, 25° C.
Method: (§2) Model membranes composed of zwitterionic and anionic phospholipids were prepared as previously described (Bender et al., 2004). Briefly, DMPC and DMPG were dissolved in dry chloroform and chloroform/methanol (2:1) respectively to give 10 mg/ml solutions. […] The solution was sonicated in an ultrasonic bath for 20 min. Eight cycles of freeze/thawing was followed by extrusion through polycarbonate filters, first 100 nm (21 times) then 50 nm pore diameter (21 times), using a Lipofast apparatus (Avestin, Ottawa, Canada) and SUVs were used immediately. SPR was carried out on a BIAcore 2000 instrument using Pioneer Sensor Chip L1 and HEPES (HBS-N, Biacore, Upssala, Sweden) as running buffer. The chip surface was cleaned with 40 mM octyl glycoside (30 μl, 10 μl/min) followed liposomes (SUV) (100 μl, 5 μl/min). 10 mM NaOH (40 μl, 10 μl/min) removed any multilamellar vesicles from the surface before injecting the lipopeptide solutions (100 μl, 5 μl/min). The dissociation stage was 1200 sec. […] All SPR experiments were run at 25° C. and all analyses were performed using the BIAevaluation software (Biacore, Uppsala, Sweden). Lipopeptide binding was expressed as the difference in signal between points before sample injection and after dissociation.

[8] = test system: allergic mice (OVA/OVA); assay: Allergic airways disease (OVA) model: local and systemic OVA-specific cytokine production; type: in vivo; set-up: key to Spleen OVA-stimulated IL-5 / Spleen OVA-stimulated IL-13 / LN OVA-stimulated IL-5 / LNOVA stimulated IL-13: nc: no change; ↑: increase; ↓: decrease; conditions: for LN OVA-stimulated IL-5 / LNOVA stimulated IL-13 / Spleen OVA-stimulated IL-5 / Spleen OVA-stimulated IL-13: 200 μg/100 μl s.c. during OVA challenge, compared to OVA/OVA alone
[9] = Surface plasmon resonance binding to DMPG liposomes; conditions: for binding to DMPG (anionic) liposomes: SPR, L1 sensor chip, 50 μM, 25° C.
Method: as §2

[10] = test system: allergic mice (OVA/OVA); assay: Allergic airways disease (OVA) model: inflammatory cells in BALF; type: in vivo; set-up: key to Airway lymphocytes / Airway eosinophils / Airway macrophages / Airway inflammatory cells / Airway neutrophils: nc: no change; ↑: increase; ↓: decrease; conditions: for Airway eosinophils / Airway inflammatory cells / Airway lymphocytes / Airway macrophages / Airway neutrophils: 200 μg/100 μl s.c. during OVA challenge, compared to OVA/OVA alone
[11] = fifth IL2 column (individual experiment in triplicate)
[12] = first IL2 column (individual experiment in triplicate)
[13] = fourth IL2 column (individual experiment in triplicate)
[14] = second IL2 column (individual experiment in triplicate)
[15] = third IL2 column (individual experiment in triplicate)
[16] = 200 μg s.c. during challenge, allergic mice

GLRILLLKV [CP, GLRILLLKV, reference compound]
stability without trypsin, 3 hours (Mass spectroscopy-MS) [1]: No degradation product
stability without trypsin, 24 hours (MS) [1]: No degradation product

CO/N=C(\C(=O)N[C@@H]1C(=O)N2C(C(=O)O)=C(COC(C)=O)CS[C@H]12)c1csc(N)n1 [Ceforaxime, reference compound]
antimicrobial activity, E. coli ([2]; 30 μg/ml): +ve
antimicrobial activity, S. pneumoniae ([3]; 30 μg/ml): −ve
antimicrobial activity, S. aureus ([4]; 30 μg/ml): −ve

LDRLDKVDG (cyclo(LDRLDKVDG); ring closure inferred; not fully specified) [6AA]
% Ave IL2 Production [5]: 35%
IL2 % [5, 11]: 44.3%
IL2 % [5, 12]: 9.0%
IL2 % [5, 13]: 33.7%
IL2 % [5, 14]: 36.5%
IL2 % [5, 15]: (52) %

LDRLDKLDLLDKVDG (cyclo(LDRLDKLDLLDKVDG); ring closure inferred; not fully specified) [C9]
% Ave IL2 Production [5]: 25%
IL2 % [5, 11]: 16.9%
IL2 % [5, 13]: 6.75%
IL2 % [5, 14]: 11.5%
IL2 % [5, 15]: (65.3) %

LDKLDLLDLLDKVDG (cyclo(LDKLDLLDLLDKVDG); ring closure inferred; not fully specified) [C5]
% Ave IL2 Production [5]: 78%
IL2 % [5, 12]: 73.6%
IL2 % [5, 14]: 75%
IL2 % [5, 15]: 85.4%

LDKLDKKDKLDKVDG (cyclo(LDKLDKKDKLDKVDG); ring closure inferred; not fully specified) [C11]
% Ave IL2 Production [5]: 96%
IL2 % [5, 14]: 88.5%
IL2 % [5, 15]: 104%

LDRLDLLDLLDKVDG [C1-L]
airway resistance in response to methacholine challenge [6, 16]: no significant effect
dynamic compliance in response to methacholine challenge [6, 16]: no significant effect
Airway Compliance [6]: nc
Airway Resistance [6]: nc
binding to DMPC (zwitterionic) liposomes [7]: only very limited binding
% Ave IL2 Production [5]: 90%
IL-2 production, % of the solvent only control value ([5]; peptide 50 μM): only minimal activity
locally produced (peribronchial lymph node derived) IL-5 [8, 16]: no significant impact
locally produced (peribronchial lymph node derived) IL-13 [8, 16]: no significant impact
systemic (spleen derived) IL-5 [8, 16]: significantly decreased
systemic (spleen derived) IL-13 [8, 16]: no change
LN OVA-stimulated IL-5 [8]: nc
LNOVA stimulated IL-13 [8]: nc
Spleen OVA-stimulated IL-5 [8]: ↓
Spleen OVA-stimulated IL-13 [8]: nc
binding to DMPG (anionic) liposomes [9]: only very limited binding
eosinophils in BALF [10, 16]: decrease
total inflammatory cell counts in bronchoalveolar lavage fluid (BALF) [10, 16]: significantly decreased
Airway eosinophils [10]: ↓
Airway inflammatory cells [10]: ↓
Airway lymphocytes [10]: nc
Airway macrophages [10]: nc
Airway neutrophils [10]: nc

LDRLDLLDLLDRVDG [C4]
antimicrobial activity, E. coli ([2]; peptide 10 μg/ml): −ve
antimicrobial activity, E. coli ([2]; peptide 100 μg/ml): −ve
antimicrobial activity, E. coli ([2]; peptide 1000 μg/ml): −ve
binding to DMPC (zwitterionic) liposomes [7]: no binding at all
% Ave IL2 Production [5]: 72%
IL-2 production, % of the solvent only control value ([5]; peptide 50 μM): 74.54%±11.22
antimicrobial activity, S. pneumoniae ([3]; peptide 10 μg/ml): −ve
antimicrobial activity, S. pneumoniae ([3]; peptide 100 μg/ml): −ve
antimicrobial activity, S. pneumoniae ([3]; peptide 1000 μg/ml): −ve
binding to DMPG (anionic) liposomes [9]: no binding at all
antimicrobial activity, S. aureus ([4]; peptide 10 μg/ml): −ve
antimicrobial activity, S. aureus ([4]; peptide 100 μg/ml): −ve
antimicrobial activity, S. aureus ([4]; peptide 1000 μg/ml): −ve

RDLLDLLDLLDKVDG [C7]
% Ave IL2 Production [5]: 49%
IL2 % [5, 11]: 76.4%
IL2 % [5, 12]: 29%
IL2 % [5, 13]: 71%
IL2 % [5, 14]: 15.4%
IL2 % [5, 15]: 54%

LDRLDLLDKVDG [8AA]
% Ave IL2 Production [5]: 72%

LDRLDKKDKLDKVDG (cyclo(LDRLDKKDKLDKVDG); ring closure inferred; not fully specified) [C12]
% Ave IL2 Production [5]: 27%
IL2 % [5, 11]: 24%
IL2 % [5, 12]: 9.0%
IL2 % [5, 13]: 33.7%
IL2 % [5, 14]: 21%
IL2 % [5, 15]: (49) %

Cc1onc(-c2ccccc2)c1C(=O)N[C@@H]1C(=O)N2[C@@H]1SC(C)(C)[C@@H]2C(=O)O [Oxacillin, reference compound]
antimicrobial activity, E. coli ([2]; 1 μg/ml): −ve
antimicrobial activity, S. pneumoniae ([3]; 1 μg/ml): +ve
antimicrobial activity, S. aureus ([4]; 1 μg/ml): +ve

C[C@H]1C[C@@H]2[C@H]([C@@H](O)C[C@@]3(C)[C@H]2CC[C@]3(O)C(=O)CO)[C@@]2(C)C=CC(=O)C=C12 [methylprednisolone, reference compound]
Airway Compliance [6]: ↑
Airway Resistance [6]: ↓
LN OVA-stimulated IL-5 [8]: nc
LNOVA stimulated IL-13 [8]: nc
Spleen OVA-stimulated IL-5 [8]: ↓
Spleen OVA-stimulated IL-13 [8]: ↓
Airway eosinophils [10]: ↓
Airway inflammatory cells [10]: ↓
Airway lymphocytes [10]: nc
Airway macrophages [10]: ↓
Airway neutrophils [10]: ↓

LDLLDLLDRLDKVDG (cyclo(LDLLDLLDRLDKVDG); ring closure inferred; not fully specified) [C8]
% Ave IL2 Production [5]: 33%
IL2 % [5, 11]: 17.4%
IL2 % [5, 13]: 20.2%
IL2 % [5, 14]: 35%
IL2 % [5, 15]: (61.2) %

LDLLDRLDLLDKVDG (cyclo(LDLLDRLDLLDKVDG); ring closure inferred; not fully specified) [C6]
% Ave IL2 Production [5]: 99%
IL2 % [5, 12]: 104.5%
IL2 % [5, 14]: 104%
IL2 % [5, 15]: 89%

LDRLDLLDKLDKVDG (cyclo(LDRLDLLDKLDKVDG); ring closure inferred; not fully specified) [C3, cyclic peptide 3]
antimicrobial activity, E. coli ([2]; peptide 100 μg/ml): −ve
antimicrobial activity, E. coli ([2]; peptide 1000 μg/ml): −ve
binding to DMPC (zwitterionic) liposomes [7]: no binding at all
% Ave IL2 Production [5]: 95%
IL-2 production, % of the solvent only control value ([5]; peptide 50 μM): 91.69%±25.86
antimicrobial activity, S. pneumoniae ([3]; peptide 100 μg/ml): −ve
antimicrobial activity, S. pneumoniae ([3]; peptide 1000 μg/ml): −ve
binding to DMPG (anionic) liposomes [9]: no binding at all
antimicrobial activity, S. aureus ([4]; peptide 100 μg/ml): −ve
antimicrobial activity, S. aureus ([4]; peptide 1000 μg/ml): −ve

LDRLDKLDKLDKVDG (cyclo(LDRLDKLDKLDKVDG); ring closure inferred; not fully specified) [C10]
% Ave IL2 Production [5]: 59%
IL2 % [5, 11]: 64.1%
IL2 % [5, 13]: 54%

LDKLDKLDKLDKVDG [C2]
antimicrobial activity, E. coli ([2]; peptide 10 μg/ml): −ve
antimicrobial activity, E. coli ([2]; peptide 100 μg/ml): −ve
antimicrobial activity, E. coli ([2]; peptide 1000 μg/ml): −ve
binding to DMPC (zwitterionic) liposomes [7]: only very limited binding
% Ave IL2 Production [5]: 22%
IL-2 production, % of the solvent only control value ([5]; peptide 25 μM): 58.74%±7.63
IL-2 production, % of the solvent only control value ([5]; peptide 50 μM): 24.51%±8.81
antimicrobial activity, S. pneumoniae ([3]; peptide 10 μg/ml): −ve
antimicrobial activity, S. pneumoniae ([3]; peptide 100 μg/ml): −ve
antimicrobial activity, S. pneumoniae ([3]; peptide 1000 μg/ml): −ve
binding to the anionic liposome ([9]; SPR sensorgram): 3000 RU
antimicrobial activity, S. aureus ([4]; peptide 10 μg/ml): −ve
antimicrobial activity, S. aureus ([4]; peptide 100 μg/ml): −ve
antimicrobial activity, S. aureus ([4]; peptide 1000 μg/ml): −ve

From patent US20120077732A1, “CYCLIC PEPTIDES AND USES THEREOF” (SYDNEY WEST AREA HEALTH SERVICE, priority 2008, published 2012)
